Measured values as given in ChEMBL document CHEMBL1201862, “PubChem BioAssay data set” (2004).
Activity calls are given as the source filed them.

How the values were obtained:
Cytochrome P450 2C19 = Cytochrome P450 2C19 (Homo sapiens, UniProt P33261); test: Cytochrome panel assay with activity outcomes. Panel member name: p450-cyp2c19 Compounds with AC50 equal or less than 10 uM are considered active; assay type: functional; details: read-out: AC50
Cytochrome P450 2C9 = Cytochrome P450 2C9 (Homo sapiens, UniProt P11712)
Cytochrome P450 2D6 = Cytochrome P450 2D6 (Homo sapiens, UniProt P10635);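 also: CYP2D6 member of a cytochrome P450 panel assay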
Cytochrome P450 3A4 = Cytochrome P450 3A4 (Homo sapiens, UniProt P08684);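 also: CYP3A4 tested as one member of a cytochrome P450 panel screen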
HEK293 [1] = test: NOD1 signaling inhibitors, primary screen, cell-based, luminescence, uHTS (AID 1578); assay type: functional; details: Homo sapiens
BJ [2] = test: cytotoxicity toward BJ-TERT fibroblasts, dose response, cell-based, RAS-independent, luminescence (AID 1933); assay type: functional; details: Homo sapiens
HEK293 [3] = test: cells; assay type: functional, cell-based; details: Homo sapiens
BJ [4] = test: cells; assay type: functional, cell-based; details: Homo sapiens
HEK293 [5] = test: cells; assay type: functional, cell-based; details: Homo sapiens; remark: listed apart in the source
[6] = target: Nucleotide-binding oligomerization domain-containing protein 2 (Homo sapiens, UniProt Q9HC29); test: NOD2 signaling inhibitors, cell-based, luminescence, uHTS, HEK293 (AID 1566); assay type: functional
HEK293 [7] = test: NOD2 signaling inhibitors in MDP-stimulated cells, cell-based, uHTS, luminescence (AID 2001); assay type: functional; details: Homo sapiens
HEK293 [8] = test: cells; assay type: functional, cell-based; details: Homo sapiens; remark: listed apart in the source
BJ [9] = test: cytotoxicity toward BJ-TERT-LT-ST fibroblasts, dose response, cell-based, RAS-independent, luminescence (AID 1935); assay type: functional; details: Homo sapiens;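 also: BJ fibroblasts immortalized with TERT plus LT and ST oncogenes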
[10] = cytotoxicity toward DRD oncogenic fibroblasts, dose response, cell-based, non-viral oncogenic, luminescence (AID 1934); assay type: functional; details: Homo sapiens
[11] = target: T1, Replicative DNA helicase DnaB (Mycobacterium tuberculosis, UniProt P9WMR3); test: DnaB intein splicing inhibitors, dose response, biochemical, cell-free fluorescence (AID 449749); assay type: functional
T1 sequence (P9WMR3 whole entry): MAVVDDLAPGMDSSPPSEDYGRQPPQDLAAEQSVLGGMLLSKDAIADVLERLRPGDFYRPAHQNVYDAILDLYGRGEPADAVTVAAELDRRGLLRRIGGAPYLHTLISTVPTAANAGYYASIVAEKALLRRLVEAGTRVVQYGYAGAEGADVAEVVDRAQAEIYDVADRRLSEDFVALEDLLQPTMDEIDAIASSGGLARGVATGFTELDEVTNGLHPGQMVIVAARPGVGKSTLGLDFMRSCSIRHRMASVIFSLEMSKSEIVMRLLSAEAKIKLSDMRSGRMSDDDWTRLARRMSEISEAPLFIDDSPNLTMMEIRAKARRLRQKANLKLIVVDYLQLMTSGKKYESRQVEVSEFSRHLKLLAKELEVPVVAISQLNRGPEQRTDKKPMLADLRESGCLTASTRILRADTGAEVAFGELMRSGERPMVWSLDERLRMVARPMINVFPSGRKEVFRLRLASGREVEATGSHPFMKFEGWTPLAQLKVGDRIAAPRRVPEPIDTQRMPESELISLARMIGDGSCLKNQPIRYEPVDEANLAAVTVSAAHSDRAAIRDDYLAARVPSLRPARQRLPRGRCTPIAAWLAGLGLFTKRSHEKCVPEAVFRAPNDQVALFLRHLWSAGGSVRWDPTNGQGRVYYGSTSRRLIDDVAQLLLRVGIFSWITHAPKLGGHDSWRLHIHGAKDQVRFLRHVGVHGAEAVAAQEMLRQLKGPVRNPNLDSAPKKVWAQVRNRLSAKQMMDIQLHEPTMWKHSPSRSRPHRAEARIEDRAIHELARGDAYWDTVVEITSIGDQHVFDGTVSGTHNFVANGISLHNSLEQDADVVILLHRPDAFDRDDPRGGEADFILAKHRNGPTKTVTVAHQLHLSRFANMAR

Protein RecA = target: T2, Protein RecA (Mycobacterium tuberculosis, UniProt P9WHJ3); test: Fluorescence Cell-Free Homogeneous Dose Retest to Identify Inhibitors of RecA-Intein Splicing Activity. [Related pubchem assays (depositor defined):AID2097, AID2223, AID489010, AID492950]; assay type: functional
T2 sequence (P9WHJ3 whole entry): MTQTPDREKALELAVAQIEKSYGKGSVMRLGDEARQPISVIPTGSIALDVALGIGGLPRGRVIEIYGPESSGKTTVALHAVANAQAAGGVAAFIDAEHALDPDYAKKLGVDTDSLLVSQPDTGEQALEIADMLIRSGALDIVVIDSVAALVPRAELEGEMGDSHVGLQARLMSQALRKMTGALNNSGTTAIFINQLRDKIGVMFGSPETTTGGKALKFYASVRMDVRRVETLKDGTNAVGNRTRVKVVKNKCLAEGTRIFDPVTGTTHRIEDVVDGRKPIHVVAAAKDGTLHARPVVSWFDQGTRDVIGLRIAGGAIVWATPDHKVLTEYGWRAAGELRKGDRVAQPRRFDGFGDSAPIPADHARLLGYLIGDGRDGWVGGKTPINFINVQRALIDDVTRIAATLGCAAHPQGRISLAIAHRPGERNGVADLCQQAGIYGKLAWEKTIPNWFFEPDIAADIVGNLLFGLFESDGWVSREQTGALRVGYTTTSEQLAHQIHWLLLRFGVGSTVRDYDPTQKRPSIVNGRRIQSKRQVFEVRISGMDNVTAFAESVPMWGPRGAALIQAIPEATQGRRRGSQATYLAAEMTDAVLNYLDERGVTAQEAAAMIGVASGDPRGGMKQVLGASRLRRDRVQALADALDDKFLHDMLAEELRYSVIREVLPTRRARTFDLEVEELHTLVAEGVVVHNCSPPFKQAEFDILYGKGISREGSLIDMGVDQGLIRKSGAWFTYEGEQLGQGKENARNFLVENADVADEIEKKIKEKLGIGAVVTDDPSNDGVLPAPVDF

[12] = NIH-3T3 fibroblast cytotoxicity, dose response, cytotoxicity control, cell-based, fluorescence, Alamar Blue, secondary assay (AID 2327); assay type: functional;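 also: NIH-3T3 mouse fibroblasts cultured with fluconazole at 8 µg/mL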
[13] = insulin promoter down-regulators in MIN6 cells, imaging, high-content screening, mouse beta cells (AID 1628); assay type: functional
[14] = cytotoxicity in MIN6 insulinoma cells, dose response, cytotoxicity control, cell-based, mouse insulinoma (AID 2122); assay type: functional;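 also: confirmatory high-throughput counterscreen run to flag cytotoxic compounds; mouse MIN-6 beta cells carrying an insulin promoter eGFP reporter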
[15] = C. albicans growth with fluconazole, confirmation, fluorescence, retest (AID 2467); assay type: functional, cell-based
[16] = inhibitors of intracellular T. cruzi replication, confirmation, NIH3T3 host cells, beta-gal luminescence (AID 2044); assay type: functional, cell-based;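 also: intracellular parasites grown in NIH/3T3 mouse fibroblasts as host cells; luminescent beta-galactosidase reporter signal from transgenic T. cruzi replicating inside host cells; inhibitors lower the luminescence signal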
[17] = cytotoxicity toward NIH3T3 fibroblasts, dose response, counter-screen, cell-based, ATP luminescence, mouse fibroblasts (AID 2010); assay type: functional;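 also: cells exposed to compound for about 90 hours before reading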
Protein Wnt-3a = Protein Wnt-3a (Mus musculus, UniProt P27467); test: Wnt3a-driven reporter signaling inhibition, dose response, selectivity assay for Gli-SUFU antagonist project, Wnt-LIGHT cells, luminescence (AID 651570); assay type: functional; details: read-out: IC50_Mean;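 also: Wnt-LIGHT reporter cells stimulated with conditioned medium from Wnt3a-producing cells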
[18] = target: Kappa-type opioid receptor (Homo sapiens, UniProt P41145); test: SAR analysis of small molecule agonists of the kappa opioid receptor via a luminescent beta-arrestin assay - Set 3. [Related pubchem assays (depositor defined):AID1777, AID1785, AID1786, AID1966, AID2133, AID2136, AID2284, AID2500]; assay type: functional
[19] = inhibitors of firefly luciferase expression or activity, dose response, H4 neuroglioma cells, luminescence (AID 1990); assay type: functional, cell-based
cells [20] = assay type: functional, cell-based
[21] = Luminescence Cell-Based Dose Response HTS to Identify Inhibitors of 5'UTR Stem-Loop Driven Prion Protein mRNA Translation in H4 Neuroglioblastoma Cells. [Related pubchem assays: 1827 (Project Summary), 1813 (Primary HTS)]; assay type: functional
[22] = inhibitors of SNCA 5'UTR-driven reporter translation, confirmation, H4 neuroglioma cells, luminescence (AID 1988); assay type: functional, cell-based
cells [23] = assay type: functional, cell-based; remark: listed apart in the source
[24] = Luminescence Cell-Based Dose Retest to Confirm Inhibitors of Cancer Stem Cells. [Related pubchem assays (depositor defined):AID2717, AID2721]; assay type: functional; details: Homo sapiens
[25] = target: Disintegrin and metalloproteinase domain-containing protein 17 (Homo sapiens, UniProt P78536); test: exosite inhibitors of ADAM17, dose response, biochemical (AID 743260)
[26] = ADAM10 protease inhibitors, dose response, selectivity assay for ADAM17 exosite inhibitor project, biochemical, FRET peptide substrate, recombinant human ADAM10 (AID 743259);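 also: ADAM10 enzyme cleaving a FRET peptide substrate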
[27] = system: Streptococcus sp. 'group A'; test: growth inhibition of control SK(-) GAS strain, dose response, counter-screen for streptokinase expression inhibitor project, luminescence, kanamycin, BacTiterGlo, confirmation (AID 1900); assay type: functional, organism-based
Streptokinase A = target: T3, Streptokinase A (Streptococcus pyogenes serotype M1, UniProt P10520); test: S. pyogenes streptokinase expression inhibitors, potency, dose response, plasminogen activation absorbance, OD405 (AID 1914); assay type: functional, Streptococcus pyogenes M1 GAS;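 also: secreted streptokinase activity via plasminogen activation per viability signal from cell pellet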
T3 sequence (P10520 whole entry): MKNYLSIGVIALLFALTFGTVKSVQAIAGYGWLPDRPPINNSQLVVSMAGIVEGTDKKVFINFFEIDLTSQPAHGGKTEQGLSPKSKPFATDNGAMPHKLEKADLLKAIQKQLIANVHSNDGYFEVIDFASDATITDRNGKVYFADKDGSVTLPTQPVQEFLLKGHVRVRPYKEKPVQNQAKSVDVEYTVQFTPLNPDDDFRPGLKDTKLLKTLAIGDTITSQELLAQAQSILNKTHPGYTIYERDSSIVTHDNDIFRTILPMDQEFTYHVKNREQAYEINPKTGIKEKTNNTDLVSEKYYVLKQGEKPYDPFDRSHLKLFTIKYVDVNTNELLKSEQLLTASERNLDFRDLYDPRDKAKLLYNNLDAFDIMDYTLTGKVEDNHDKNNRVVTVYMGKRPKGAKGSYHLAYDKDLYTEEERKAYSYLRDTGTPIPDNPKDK

Streptococcus = test: Group A Streptococcus viability loss, dose response, counter-screen for streptokinase expression inhibitor project, luminescence, BacTiterGlo (AID 1915); assay type: functional, organism-based;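 also: potency for reduction of bacterial viability or growth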

Sequence of Cytochrome P450 2C19 (P33261 whole entry): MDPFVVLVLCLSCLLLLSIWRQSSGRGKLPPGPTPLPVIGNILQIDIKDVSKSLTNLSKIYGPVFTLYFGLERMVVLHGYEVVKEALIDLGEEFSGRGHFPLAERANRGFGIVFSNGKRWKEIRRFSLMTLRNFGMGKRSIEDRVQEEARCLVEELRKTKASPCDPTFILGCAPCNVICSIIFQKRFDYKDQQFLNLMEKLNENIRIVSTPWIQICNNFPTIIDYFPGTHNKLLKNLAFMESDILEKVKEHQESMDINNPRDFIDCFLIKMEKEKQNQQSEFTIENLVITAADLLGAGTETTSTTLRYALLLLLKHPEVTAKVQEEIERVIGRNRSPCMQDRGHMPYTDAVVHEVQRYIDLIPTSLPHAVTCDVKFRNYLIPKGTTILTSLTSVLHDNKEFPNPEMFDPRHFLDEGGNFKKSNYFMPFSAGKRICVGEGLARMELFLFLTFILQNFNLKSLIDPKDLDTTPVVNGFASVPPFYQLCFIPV
Sequence of Disintegrin and metalloproteinase domain-containing protein 17 (P78536 whole entry, the tested form may be a part): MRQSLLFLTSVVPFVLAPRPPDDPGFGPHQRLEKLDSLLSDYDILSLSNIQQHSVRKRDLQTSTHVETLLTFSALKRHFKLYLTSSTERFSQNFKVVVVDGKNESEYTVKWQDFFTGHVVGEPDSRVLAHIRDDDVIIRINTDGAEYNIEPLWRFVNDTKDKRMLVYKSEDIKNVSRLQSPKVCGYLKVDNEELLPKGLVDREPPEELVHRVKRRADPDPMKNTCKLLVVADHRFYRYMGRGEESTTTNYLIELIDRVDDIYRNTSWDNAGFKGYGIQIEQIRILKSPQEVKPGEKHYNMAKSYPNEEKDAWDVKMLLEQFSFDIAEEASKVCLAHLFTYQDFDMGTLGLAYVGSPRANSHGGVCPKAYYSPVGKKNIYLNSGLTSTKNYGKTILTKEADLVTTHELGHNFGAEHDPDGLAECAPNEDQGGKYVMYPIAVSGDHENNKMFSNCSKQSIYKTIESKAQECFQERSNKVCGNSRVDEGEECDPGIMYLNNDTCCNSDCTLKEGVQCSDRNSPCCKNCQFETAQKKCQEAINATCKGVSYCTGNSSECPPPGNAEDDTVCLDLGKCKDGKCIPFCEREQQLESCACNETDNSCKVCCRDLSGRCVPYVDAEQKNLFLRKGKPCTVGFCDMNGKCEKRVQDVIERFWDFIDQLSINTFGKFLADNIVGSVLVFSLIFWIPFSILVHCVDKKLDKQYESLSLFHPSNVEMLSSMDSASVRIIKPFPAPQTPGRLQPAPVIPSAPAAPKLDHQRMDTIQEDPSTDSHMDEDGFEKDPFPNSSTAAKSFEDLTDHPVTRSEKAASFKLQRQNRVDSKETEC
Sequence of Protein Wnt-3a (P27467 whole entry): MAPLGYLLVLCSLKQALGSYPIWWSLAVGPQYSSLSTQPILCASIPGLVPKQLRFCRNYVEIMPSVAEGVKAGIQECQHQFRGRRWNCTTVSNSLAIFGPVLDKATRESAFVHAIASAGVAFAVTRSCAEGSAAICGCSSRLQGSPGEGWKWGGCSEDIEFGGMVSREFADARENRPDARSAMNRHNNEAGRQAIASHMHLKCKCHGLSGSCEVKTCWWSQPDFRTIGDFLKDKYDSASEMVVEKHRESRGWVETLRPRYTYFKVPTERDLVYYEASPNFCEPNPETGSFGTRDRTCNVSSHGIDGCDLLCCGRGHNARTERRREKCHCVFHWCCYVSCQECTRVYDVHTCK
Sequence of Kappa-type opioid receptor (P41145 whole entry): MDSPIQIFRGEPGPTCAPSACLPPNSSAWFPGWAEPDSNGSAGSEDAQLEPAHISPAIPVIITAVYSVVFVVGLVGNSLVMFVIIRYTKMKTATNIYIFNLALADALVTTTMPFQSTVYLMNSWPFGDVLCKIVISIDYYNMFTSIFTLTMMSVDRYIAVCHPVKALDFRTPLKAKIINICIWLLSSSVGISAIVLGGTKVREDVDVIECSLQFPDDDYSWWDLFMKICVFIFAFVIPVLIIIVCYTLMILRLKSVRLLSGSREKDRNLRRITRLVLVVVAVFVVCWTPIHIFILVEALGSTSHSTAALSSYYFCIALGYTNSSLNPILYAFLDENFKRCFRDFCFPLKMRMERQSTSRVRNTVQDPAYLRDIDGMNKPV
Sequence of Cytochrome P450 2C9 (P11712 whole entry): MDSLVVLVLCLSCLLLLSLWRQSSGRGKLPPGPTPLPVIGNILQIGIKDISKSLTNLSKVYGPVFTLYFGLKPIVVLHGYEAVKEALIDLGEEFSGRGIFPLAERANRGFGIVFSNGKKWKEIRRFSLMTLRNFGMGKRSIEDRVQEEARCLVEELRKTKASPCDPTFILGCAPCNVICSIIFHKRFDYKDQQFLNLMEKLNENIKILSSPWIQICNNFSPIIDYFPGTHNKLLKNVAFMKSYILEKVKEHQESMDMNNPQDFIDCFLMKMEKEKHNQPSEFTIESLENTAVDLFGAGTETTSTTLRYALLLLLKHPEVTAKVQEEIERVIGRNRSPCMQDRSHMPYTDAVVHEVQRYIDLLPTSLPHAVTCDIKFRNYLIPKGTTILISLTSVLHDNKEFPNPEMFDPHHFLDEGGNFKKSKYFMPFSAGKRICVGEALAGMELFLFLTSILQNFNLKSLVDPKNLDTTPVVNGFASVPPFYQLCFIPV
Sequence of Cytochrome P450 3A4 (P08684 whole entry): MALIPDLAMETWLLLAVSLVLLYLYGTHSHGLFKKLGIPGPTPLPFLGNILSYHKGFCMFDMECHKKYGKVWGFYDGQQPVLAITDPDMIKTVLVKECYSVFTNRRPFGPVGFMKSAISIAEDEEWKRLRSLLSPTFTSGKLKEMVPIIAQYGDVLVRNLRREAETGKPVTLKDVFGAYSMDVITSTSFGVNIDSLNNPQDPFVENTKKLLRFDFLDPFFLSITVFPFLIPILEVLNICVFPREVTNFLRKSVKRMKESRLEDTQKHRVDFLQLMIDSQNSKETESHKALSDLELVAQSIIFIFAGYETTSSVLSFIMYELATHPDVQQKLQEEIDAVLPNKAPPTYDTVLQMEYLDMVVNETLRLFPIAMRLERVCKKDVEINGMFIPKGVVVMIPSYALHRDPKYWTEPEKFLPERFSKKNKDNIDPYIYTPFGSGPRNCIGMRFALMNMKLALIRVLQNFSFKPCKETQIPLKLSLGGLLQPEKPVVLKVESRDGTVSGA
Sequence of Nucleotide-binding oligomerization domain-containing protein 2 (Q9HC29 whole entry, the tested form may be a part): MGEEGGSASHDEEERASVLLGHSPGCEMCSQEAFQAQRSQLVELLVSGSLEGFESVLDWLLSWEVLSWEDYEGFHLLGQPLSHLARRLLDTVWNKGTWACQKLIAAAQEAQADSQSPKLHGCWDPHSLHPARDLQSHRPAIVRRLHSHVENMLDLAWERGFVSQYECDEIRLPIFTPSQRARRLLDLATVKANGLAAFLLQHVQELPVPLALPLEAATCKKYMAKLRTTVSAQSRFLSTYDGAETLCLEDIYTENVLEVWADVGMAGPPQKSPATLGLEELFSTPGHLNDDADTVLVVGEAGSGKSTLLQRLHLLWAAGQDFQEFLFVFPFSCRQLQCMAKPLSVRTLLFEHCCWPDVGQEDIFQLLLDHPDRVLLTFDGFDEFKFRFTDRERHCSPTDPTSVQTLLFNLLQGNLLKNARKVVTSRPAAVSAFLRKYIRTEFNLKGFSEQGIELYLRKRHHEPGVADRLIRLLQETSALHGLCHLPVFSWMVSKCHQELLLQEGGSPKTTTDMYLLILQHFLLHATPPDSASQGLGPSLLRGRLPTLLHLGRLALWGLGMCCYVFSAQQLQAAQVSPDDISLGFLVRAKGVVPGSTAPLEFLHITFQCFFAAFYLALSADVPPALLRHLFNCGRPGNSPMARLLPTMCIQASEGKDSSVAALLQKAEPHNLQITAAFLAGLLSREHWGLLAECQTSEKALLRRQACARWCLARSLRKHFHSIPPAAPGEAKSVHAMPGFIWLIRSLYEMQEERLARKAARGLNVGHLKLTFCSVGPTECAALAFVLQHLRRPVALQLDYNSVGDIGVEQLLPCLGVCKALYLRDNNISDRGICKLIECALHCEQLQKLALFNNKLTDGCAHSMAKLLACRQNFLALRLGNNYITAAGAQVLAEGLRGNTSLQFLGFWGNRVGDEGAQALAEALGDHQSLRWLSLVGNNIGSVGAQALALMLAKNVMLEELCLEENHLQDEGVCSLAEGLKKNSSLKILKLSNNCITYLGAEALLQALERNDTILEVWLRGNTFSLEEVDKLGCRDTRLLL
Sequence of Cytochrome P450 2D6 (P10635 whole entry): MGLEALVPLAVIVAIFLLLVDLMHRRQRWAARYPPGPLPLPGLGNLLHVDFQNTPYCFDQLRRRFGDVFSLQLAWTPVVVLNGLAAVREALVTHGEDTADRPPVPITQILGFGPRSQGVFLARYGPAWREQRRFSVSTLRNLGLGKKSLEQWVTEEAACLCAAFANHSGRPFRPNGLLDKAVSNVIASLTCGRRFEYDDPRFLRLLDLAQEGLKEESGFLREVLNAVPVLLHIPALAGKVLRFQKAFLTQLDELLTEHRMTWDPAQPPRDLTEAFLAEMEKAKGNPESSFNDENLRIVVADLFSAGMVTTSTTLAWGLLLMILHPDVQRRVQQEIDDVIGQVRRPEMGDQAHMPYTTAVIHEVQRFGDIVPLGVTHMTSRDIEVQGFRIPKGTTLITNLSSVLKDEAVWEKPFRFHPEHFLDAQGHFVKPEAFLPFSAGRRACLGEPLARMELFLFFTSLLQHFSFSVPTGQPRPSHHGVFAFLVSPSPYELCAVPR

Structure (SMILES): CCOC(=O)c1ccc(NC(=O)C(=O)NCC2CCCO2)cc1 (centres undefined)
- AC50 (Cytochrome P450 2C19): 31.6 µM (inconclusive)
- AC50 (Cytochrome P450 2C9): 25.1 µM (inconclusive)
- AC50 (Cytochrome P450 2D6): inconclusive

Structure (SMILES): c1ccc2cc(Sc3ncnc4c3oc3ccccc34)ccc2c1
- AC50 (Cytochrome P450 3A4): inconclusive

Structure (SMILES): Cc1cccc(CN2CCN(C(=O)CCl)CC2)c1
- EC50 (HEK293 [1]): > 20 µM (inactive)
- EC50 (BJ [2]): 9.64 µM (inconclusive)
- IC50 (HEK293 [3]): 13.9 µM (active)
- EC50 (BJ [4]): > 150 µM (not active)
- IC50 (HEK293 [5]): > 20 µM (inactive)
- EC50 [6]: > 20 µM (inactive)
- IC50 (HEK293 [7]): 16.7 µM (inactive)
- IC50 (HEK293 [8]): > 20 µM (inactive)
- EC50 (BJ [9]): > 150 µM (inconclusive)
- EC50 [10]: 31.2 µM (active)
- AC50 [11]: 21.4 µM (active)
- EC50 (Protein RecA): 20.2 µM (active)

Structure (SMILES): CC(C)CCOC(=O)C[N+](C)(C)CCOC1CC2CCC1(C)C2(C)C (centres undefined)
- EC50 [12]: > 160 µM (inactive)
- IC50 [13]: 0.643 µM (active)
- IC50 [14]: < 0.25 µM (active)
- EC50 [15]: 1.3 µM (active)
- EC50 [16]: 286 nM (active)
- EC50 [17]: > 60 µM (not active)
- IC50 (Protein Wnt-3a): 5.09 µM (active)

Structure (SMILES): Clc1ccc(CSc2nnc(-c3ccccn3)n2Cc2ccccc2Cl)cc1Cl
- EC50 [18]: 11.8 µM (inactive)

Structure (SMILES): O=C(NC(CSCc1ccccc1)C(=O)N/N=C/c1ccc(O)cc1O)c1ccc([N+](=O)[O-])cc1 (centres undefined)
- EC50 [19]: 6.53 µM (inconclusive)
- IC50 [13]: 2.19 µM (active)
- EC50 (cells [20]): 9.52 µM (active)
- EC50 [21]: 10.9 µM (active)
- IC50 [14]: 3.07 µM (active)
- EC50 [22]: 5.27 µM (active)
- EC50 (cells [23]): > 350 µM (not active)
- AC50 [24]: 3 µM (active)
- IC50 [25]: > 69.5 µM (inactive)
- IC50 [26]: > 69.5 µM (inactive)

Structure (SMILES): Cc1coc2c1C(=O)C(=O)c1c-2ccc2c(C)cccc12 [TANSHINONE I]
- IC50 [13]: 3.91 µM (active)
- EC50 [27]: 4.65 µM (active)
- IC50 [14]: 2.8 µM (active)
- EC50 (Streptokinase A): > 150 µM (not active)
- EC50 (Streptococcus): 7.63 µM (active)
